Reference: patent US11660311B2, “Cyclic dinucleotides as anticancer agents” (priority 2017, dated 2023)
Like-named read-outs stand apart in the source and are kept apart here.

Legend:
[1] = tested on: NF-κB pathway in THP1-Dual STING reporter cells; test: STING THP1 Reporter Assay, NF-κB pathway (SEAP); format: cell-based, human; settings: Homo sapiens, THP1-Dual, 20 h, 100% = 100 μM cGAMP
Text: (§1) THP1-Dual™ cells were derived from the human THP-1 monocyte cell line by stable integration of two inducible reporter constructs. To this end, THP1-Dual™ cells allow the simultaneous study of the NF-κB pathway, by monitoring the activity of SEAP, and the IRF pathway by assessing the activity of a secreted luciferase (Lucia). Both reporter proteins are readily measurable in the cell culture supernatant when using QUANTI-Blue™, a SEAP detection reagent, and QUANTI-Luc™, a luciferase detection reagent.
(§2) THP1-Dual™ cells induce the activation of NF-κB in response to STING agonists. They also trigger the IRF pathway upon stimulation with STING agonists, such as cGAMP. Here, the THP-1-Dual cells were used to assess STING binders for function on the cellular level.
(§3) Serial dilutions of compounds in DMSO were added to low volume 384 well plates at 100 nl/well using an ECHO acoustic dispenser (Labcyte, model 550) to achieve final starting concentration of 100 μM in cell suspension. […] One column of the plate was reserved for treatment with cGAMP at 100 μM for 100% activation calculation and one column for no treatment (DMSO only) for baseline activation. Plates were then incubated in 37° C. incubator at 5% CO2 for 20 hours.
(§4) In the SEAP assay, 5 μl of 2× QuantiBlue (Invivogen, cat #Rep-qb2) is added to 384 well black plates seeded with THP1 cells and incubated at 37° C. for 2 hours. Plates were read on the Envision (Perkin Elmer) at 620 nm wavelength (OD620). In the luciferase assay, 5 μl of Quantiluc (Invivogen, Rep-qlc2) is added to white 384 well plates seeded with THP1 cells and read at 5 minutes on the Envision (Perkin Elmer) using a luminescence protocol (RLU). For both cell lines, 100% activation was determined by value (RLU) of THP-1 Dual STING cells stimulated with 100 μM cGAMP (Invivogen, cat #TLRL-NACGA23-5).

[2] = target: T1, STING WT: His-TVMV-S-hSTING(155-341)-H232R (Homo sapiens, UniProt Q86WV6, H232R); test: STING HTRF Binding Assay, STING WT; settings: 20 nM His-tagged STING cytoplasmic domain, 200 nM fluorescein-labeled cGAMP analog probe, one hour; read-out: HTRF Binding Assays IC50 (μM) STING WT
T1 construct: STING WT: His-TVMV-S-hSTING(155-341)-H232R
Procedure: (§5) A time resolved FRET-based competition binding assay was used to assess test article binding to STING WT and STING AQ. His-tagged STING cytoplasmic domain (WT or AQ) at a concentration of 20 nM was incubated with 2.5 nM Tb-labeled anti-His antibody, test compound, and fluorescein-labeled cGAMP analog probe (BioLog cat. no. C195) at a concentration of 200 nM (STING WT) or 40 nM (STING AQ) in PBS containing 0.005% Tween-20 and 0.1% BSA for one hour. Fluorescence at 495 nm and 520 nm was measured using an EnVision microplate reader to quantify FRET between Tb-labeled anti-His antibody and fluorescein-labeled probe. Background was defined as the signal obtained in the absence of STING protein, and background subtracted FRET ratios were normalized to the maximum signal obtained in the absence of test compound. These values were converted to a percent inhibition. Percent inhibition was determined for test compounds at 11 concentrations. The IC50, defined as the concentration of competing test compound needed to reduce specific binding of the probe by 50%, was calculated using the 4 parameter logistic equation to fit the data

[3] = target: T2, STING AQ: His-TVMV-S-hSTING(155-341)-G230A-R293Q (Homo sapiens, UniProt Q86WV6, G230A/H232R/R293Q); test: STING HTRF Binding Assay, STING AQ; settings: 20 nM His-tagged STING cytoplasmic domain, 40 nM fluorescein-labeled cGAMP analog probe, one hour; read-out: HTRF Binding Assays IC50 (μM) STING AQ
T2 construct: STING AQ: His-TVMV-S-hSTING(155-341)-G230A-R293Q
Procedure: as §5

[4] = tested on: IRF pathway in THP1-Dual STING reporter cells; test: STING THP1 Reporter Assay, IRF pathway (secreted Lucia luciferase); format: cell-based, human; settings: Homo sapiens, THP1-Dual, 20 h, THP1-Dual cells, 10% human plasma, 20 hours, luciferase; 100% = 100 μM cGAMP; read-out: THP1 Reporter Assays EC50 (μM) IRF3
Text: as §1, §2, §3, §4

[5] = THP1-Dual cells, 10% human plasma, 20 hours, SEAP, read-out: THP1 Reporter Assays EC50 (μM) NFkB

T2 sequence (Q86WV6 with tags, fused parts or gaps G230A/H232R/R293Q): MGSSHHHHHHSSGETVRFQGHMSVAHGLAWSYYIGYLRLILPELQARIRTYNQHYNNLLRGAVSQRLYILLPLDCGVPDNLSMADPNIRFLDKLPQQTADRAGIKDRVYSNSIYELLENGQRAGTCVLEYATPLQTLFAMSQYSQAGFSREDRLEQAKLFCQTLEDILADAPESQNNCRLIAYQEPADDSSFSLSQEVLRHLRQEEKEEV
T1 sequence (Q86WV6 with tags, fused parts or gaps H232R): as the sequence (Q86WV6 with tags, fused parts or gaps G230A/H232R/R293Q) above, with A99G, Q162R counted along it

SMILES | EC50 [1, 5] | IC50 [2] | IC50 [3] | EC50 [4] | EC50 ([1]; read-out: THP1 Reporter Assays EC50 (μM) NFkB, THP1-Dual cells, 10% human plasma, 20 hours, SEAP)
O=c1[nH]cnc2c1ncn2[C@@H]1O[C@@H]2COP(=O)(O)O[C@H]3[C@@H](O)[C@H](n4cnc5c4ncn4ccnc54)O[C@@H]3COP(=O)(O)O[C@H]2[C@H]1O [Example 18] | > 100 µM | 25.3 µM | 0.49 µM | > 100 µM | 
O=P1(O)OC[C@H]2O[C@@H](n3cnc4c3ncn3ccnc43)[C@H](O)[C@@H]2OP(=O)(O)OC[C@H]2O[C@@H](n3cnc4c3ncn3ccnc43)[C@H](O)[C@@H]2O1 [Example 19] | > 100 µM | 28.6 µM | 0.65 µM | > 100 µM | 
Nc1ncnc2c1ncn2[C@@H]1O[C@@H]2COP(=O)(O)O[C@H]3[C@@H](F)[C@H](n4cnc5c4ncn4ccnc54)O[C@@H]3COP(=O)(O)O[C@H]2[C@H]1O [Example 20] |  | 0.04 µM | 0.01 µM | 3.71 µM | 13.6 µM
